Measured values: PubChem BioAssay AID463074 (Broad Institute, 2010)
“And” between values parts separate entries of the source, which are not always exact repeats. Equal values may be shown once. The source made the active and inactive calls.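 Rule for the calls: active = AC50 no more than tenfold above the top dose tested, or full inhibition at every dose with a flat fit (cut at about 19 µM in these data); inconclusive = flat curve fit with inhibition between 30% and 70%, or poor fit; inactive = AC50 more than tenfold above the top dose tested.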

System: HMLE_sh_eGFP viability, CellTiter-Glo luminescence, 72 h
Experiment: viability loss of HMLE_sh_eGFP cells – cell-based, luminescence, counter-screen for HMLE_sh_ECad selective toxicity project, dose response (AID 463074);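 note: counterscreen control line to flag general toxicity for the HMLE_sh_ECad screen; potency for loss of viability as luminescence drops below DMSO wells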

| SMILES | AC50 |
| --- | --- |
| C=C[C@@H]1c2cc(C)ccc2N(S(=O)(=O)c2ccc(C)cc2)[C@H](c2ccc(OC(C)=O)cc2)C1(C#N)C#N | 1.3 µM |
| COc1ccc(-n2sc3c(c2=S)-c2cc(OC)ccc2NC3(C)C)cc1 | 3.51 µM |
| O=C(NC12CC3CC(CC(C3)C1)C2)c1ccc([N+](=O)[O-])o1 | 7.04 µM |
| Cc1ccc(NNC(=O)C(O)(c2cccc(C(F)(F)F)c2)c2cccc(C(F)(F)F)c2)cc1 | 3.29 µM |
| Cc1cccc(N/N=C(\C(N)=O)C2=NC(C)(C)Cc3ccccc32)c1 | 10.9 µM |
| CN(C)c1ccc(-n2cccc2/C=C/[N+](=O)[O-])cc1 | 3.63 µM |
| COc1ccc(-c2nc(NC(=O)c3cc(C(C)(C)C)nn3C)sc2C)cc1 | 14.2 µM |
| C[C@]12CC[C@H](O)C[C@H]1CC[C@@H]1[C@@H]2CC[C@]2(C)[C@@H](C3=CC(=O)OC3)CC[C@]12O | 0.234 µM |
| CCCN1CCc2c(sc(NC(=O)c3ccc(S(=O)(=O)N(C)c4ccccc4)cc3)c2C(=O)NC)C1 | 5.34 µM |
| Cc1cc(Br)c(OCc2ccc(C(=O)N/N=C/c3ccc[nH]3)cc2)c(Br)c1 | 1.32 µM |
| Cc1ccc2[nH]c3nc(N/N=C/c4cccc(O)c4)nnc3c2c1 | 0.248 µM |
| O=C(NC1CCCCC1)C(c1cccnc1)N(C(=O)CCl)c1ccc(F)cc1 (centres undefined) | 3.47 µM |
| CCN(CC)CCOc1ccc(/C(=C(/Cl)c2ccccc2)c2ccccc2)cc1 | 0.992 µM and 2.55 µM |
| Cc1ccn2c(NC3CCCCC3)c(-c3cccc(SC4CCCCC4)c3)nc2c1 | 3.86 µM |
| CN(C)C(=O)/C(C#N)=C\c1cc(Br)c(Sc2ccc(Cl)cc2)o1 | 4.46 µM |
| COc1ccc(CCNC(=O)c2coc(=O)c(Br)c2)cc1 | 15 µM |
| COc1ccccc1NC(=O)Nc1ccc(-n2ccc(C(F)(F)F)n2)cc1 | 10.3 µM |
| Nc1nc(Nc2ccccc2)nc(NC2CCCCC2)c1[N+](=O)[O-] | 6.81 µM |
| Brc1ccc(/C=N/Nc2ccccc2)cc1 | 8.16 µM |
| Oc1ccc(/C=C/c2nc(-c3ccccc3O)n(-c3ccccc3)n2)cc1 | 6.7 µM |
| Cc1ccc(-c2csc(NCCn3c(-c4ccncc4)nc4cc(C(F)(F)F)ccc43)n2)cc1 | 10.7 µM |
| C/C(N)=C(/C#N)C(=O)COC(=O)c1cc(-c2ccc(C)cc2)nc2ccccc12 | 15 µM |
| COC(=O)c1c(NC(=O)c2ccco2)sc2c1CCC2 | > 19.5 µM (inactive) |
| CCNS(=O)(=O)c1ccc(NC(=O)Nc2cccc(C(F)(F)F)c2)cc1 | 13.5 µM |
| CCN(CC)CCSc1nnc2c3ccccc3n(Cc3ccccc3)c2n1 | 2.47 µM |

| SMILES | AC50 |
| --- | --- |
| Cc1ccc2nc(N(CCCN(C)C)C(=O)c3cc(-c4cccs4)nc4ccccc34)sc2c1 | 6.4 µM |
| Cc1cc(OCc2cc(C(=O)N3CCC(Oc4cccnc4)CC3)no2)cc(C)c1Cl | 8.31 µM |
| O=C(c1cnc2ccc3ccccc3c2c1)c1cc(F)ccc1O | 0.86 µM |
| COc1cc(/C=C/c2[nH]c(=O)[nH]c(=O)c2[N+](=O)[O-])ccc1OCCC(C)C | 7.14 µM |
| Cc1cccc(-c2cc3nc(C)cc(N4CC(C)CC(C)C4)n3n2)c1 (centres undefined) | 6.87 µM |
| Cc1sc2ncnc(N3CCC(C(=O)N(C)CC(=O)Nc4ccc(Cl)c(C(F)(F)F)c4)CC3)c2c1C | 3.93 µM |
| O=C(Cn1ncc(Cl)c(Cl)c1=O)N1CCN(S(=O)(=O)c2ccc3ccccc3c2)CC1 | 6.11 µM |
| O=C1CC(=Nc2ccccc2)NN1c1ccccc1 | 12.4 µM |
| Cc1c(Cl)c([N+](=O)[O-])nn1Cc1ccc(C(=O)N/N=C\c2cc(Cl)ccc2O)o1 | 4.54 µM |
| O=C1NC(=O)N(Cc2ccccc2)C(=O)/C1=C\C=C\c1ccco1 | 1.93 µM |
| CN1/C(=C\C(=O)Nc2ccc(Br)cc2)C(C)(C)c2ccccc21 | 7.32 µM |
| O=C(NNC1=C(C(=O)C(F)(F)F)CCC1)c1ccc(Br)cc1 | 3.6 µM |
| CCOC(=O)c1c(C)[nH]c(C(=O)N/N=C\c2ccccc2O)c1C | 8.76 µM |
| CCN(Cc1ccccc1)S(=O)(=O)c1ccc(C(=O)N(CCCN(C)C)c2nc3cc(C)cc(C)c3s2)cc1 | 3.75 µM |
| CCOC(=O)Nc1ccc2nc(Sc3ccc(Cl)cc3)sc2c1 | 2.97 µM |
| COc1cccc(/C=N/NC(=O)c2[nH]c(C)c(C(=O)N/N=C/c3cccc(OC)c3O)c2C)c1O | 4.53 µM |
| CCOC(=O)C(C)(C)N(Cc1ccc(Cl)cc1)S(=O)(=O)c1ccc(Cl)c([N+](=O)[O-])c1 | 2.5 µM |
| Cc1oc(CC(C)C)cc1C(=O)Nc1cccc2ccccc12 | 5.98 µM |
| O=C(NCCc1c[nH]c2ccccc12)C1CCC(Cn2c(=S)[nH]c3ccccc3c2=O)CC1 (centres undefined) | 0.707 µM |
| O=C(Cn1ncc(Cl)c(Cl)c1=O)NCC1CCCCC1 | 5.74 µM |
| O=[N+]([O-])c1ccc(O)c(-c2nc(-c3ccccc3)c(-c3cccs3)[nH]2)c1 | 1.69 µM |
| COc1ccc2c(c1)-c1nc(NC(=O)c3cccs3)sc1CC2 | 11.3 µM |
| O=c1c2ccccc2nc2n1CCc1c-2[nH]c2ccccc12 | > 19.5 µM (inactive) |
| Clc1ccccc1Cn1c(/C=C/c2ccco2)nc2ccccc21 | 2.19 µM |
| Cc1cc([N+](=O)[O-])nn1CC(=O)N/N=C/c1ccc(O)cc1O | 5.4 µM |

| SMILES | AC50 |
| --- | --- |
| Cc1ccc(S(=O)(=O)Nc2ccc(NC(=O)Nc3cccc(C(F)(F)F)c3)cc2)cc1 | 2.51 µM |
| C[C@H](CO)N1C[C@H](C)[C@@H](CN(C)C(=O)Nc2ccc(C(F)(F)F)cc2)Oc2c(NC(=O)Nc3ccc(C(F)(F)F)cc3)cccc2C1=O | 4.26 µM |
| Cc1cc(C)n(Cc2ccc(NC(=O)c3ccc(COc4ccccc4Br)cc3)cc2)n1 | 3.03 µM |
| CCN(c1ccccc1)S(=O)(=O)c1cccc(C(=O)NCC(c2cccs2)N2CCOCC2)c1 (centres undefined) | > 19.5 µM (inactive) |
| O=C(CCN1Cc2ccccc2C1)c1ccc2c(c1)OCCO2 | 15.1 µM |
| Cn1cccc1/C=C1/C(=O)NC(=S)N(Cc2ccc(F)cc2)C1=O | 1.7 µM |
| Cc1ccc(NC(=S)N(CCCN2CCCC2)Cc2cccn2Cc2ccc(Cl)cc2)cc1Cl | 4.92 µM |
| COC(=O)[C@@H]1C[C@]2(OC(=O)c3ccccc3)C=CC(=O)C[C@@H]2N1C(=O)OCc1ccccc1 | 7.87 µM |
| Cc1ccc(NNC(=O)c2ccno2)cc1Cl | 4 µM |
| N#C/C(=C\C=C\c1ccccc1[N+](=O)[O-])C(=O)NC1CCCCC1 | 6.88 µM |
| Cc1ccc(-c2csc3ncnc(NS(=O)(=O)c4ccc(Cl)cc4)c23)cc1 | 11.6 µM |
| COc1cc(N=Nc2ccc3ccccc3c2)ccc1O | 6.43 µM |
| CC(Nc1nc(-c2ccc(Cl)cc2)cs1)c1nc2cc(Cl)c(N3CCCCC3)cc2n1CCOCCO (centres undefined) | 1.97 µM |
| Cc1cc(SCC(=O)N/N=C/c2ccc(O)cc2O)nc2ccccc12 | 4.75 µM |
| CCOC(=O)N1C(=O)[C@@](c2ccc(Cl)cc2)(C(C)C)N1C(=O)OCC | 7.14 µM |
| COc1cccc(-c2cc(=O)c3cc(NC(=O)c4ccc(N(C)C)cc4)ccc3[nH]2)c1 | 0.559 µM |
| COc1ccc2sc(-c3ccc(SC)cc3)c(C#CC(C)(C)O)c2c1 | 6.66 µM |
| C=CCn1c(SCc2c(C)noc2C)nc2ccccc2c1=O | 1.78 µM |
| O=C(Nc1ccc(C(O)(C(F)(F)F)C(F)(F)F)cc1)c1ccc(Cl)c([N+](=O)[O-])c1 | 7.08 µM |
| O=S(=O)(Nc1ccc(-c2nnc(SCc3ccc(Cl)cc3)o2)cc1)c1ccccc1 | 3.6 µM |
| CN(C)CCCNc1ccc(-c2cc(Nc3cccc(Cl)c3)ncn2)cn1 | 4.8 µM |
| CCOC(=O)N1CCN(c2ccc(C(=O)c3cccc(F)c3)cc2)CC1 | > 19.5 µM (inactive) |
| O=C(O)c1cc(O)ccc1NC(=O)C(c1ccccc1)c1ccccc1 | > 19.5 µM (inactive) |
| COc1ccc(-c2oc3ccccc3c2C#Cc2cncn2C)cc1 | 4.37 µM |
